Like-named read-outs stand apart in the source and are kept apart here.
How the values were obtained:
[1] = system: MCF7 cells; assay: Cell viability CellTiter-Glo, MCF7 (HER2-negative); type: cell-based; details: Homo sapiens, unconjugated payload of the ADC
Procedure: (§1) HCC1954 (American Type Culture Collection (ATCC)) breast ductal carcinoma cells were plated at 2000 cells/well in flat bottom 96-well tissue culture plates (Corning) in a total volume of 90 μL tissue culture medium supplemented with 10% fetal bovine serum (ThermoFisher Scientific). Cells were treated with a 3-fold serial dilution of compound from 200 nM to 0.03 nM. Each concentration was tested in triplicate. At the time of treatment, a plate of untreated cells was evaluated using CellTiter-Glo®2.0 Luminescent Cell Viability Assay according to the manufacturers recommendations (Promega; #G9241). CellTiter-Glo® 2.0 reagent was added to the medium, incubated, and assayed on an EnVision Multilabel Reader (PerkinElmer). Values represent time zero (T0). […] Percentage growth inhibition was calculated as: [(T144−T0)/(C−T0)]×100 for concentrations for which T144>/=T0 or [(T144−T0)/T0]×100 for concentrations for which T144<T0. The dose response curve plots were generated using Prism 7 (Graphpad) and fit using nonlinear regression analysis and the log(inhibitor) versus response-variable slope (four parameters).
(§2) HCC1954 (ATCC), 2000 cells/well), N87 (ATCC, 4000 cells/well), SKBR3 (ATCC, 3000 cells/well), and MCF7 (ATCC, 1500 cells/well) cell lines were used.

[2] = system: NCIH1568.1; assay: Payload cellular potency CTGlo-ATS 72 h, NCIH1568.1; type: cell-based; details: cell line #2, 72 h, corresponding free payload; for GI50: read-out: CTGlo-ATS GMean GI50 (nM) 72 h NCIH1568.1
[3] = system: PC3 cells; assay: Cell viability CellTiter-Glo, PC3 (EPHA2-expressing); type: cell-based; details: for GI50: Homo sapiens, PC-3, free payload of the ADC; for Payload Rmin (%) / Payload LD50: free payload of the ADC
Procedure: as §1
(§3) Anti-CD138 ADCs were tested in the CD138-expressing MOLP8 multiple myeloma cell line. Similarly, anti-EPHA2 ADCs were tested in the EPHA2-expressing PC3 prostate cancer cell line.

[4] = system: NCIH1650.1; assay: Payload cellular potency CTGlo-ATS 72 h, NCIH1650.1; type: cell-based; details: cell line #1, 72 h, corresponding free payload; for GI50: read-out: CTGlo-ATS GMean GI50 (nM) 72 h NCIH1650.1
[5] = Caco-2 permeability of ADC payload; type: in vitro ADME; details: human; for Papp B→A at 2 h, 10 NM: basolateral to apical, read-out: Permeability Mean Caco-2 B-A Perm (10e−G cm/s)
Procedure: (§4) Integrity of cell monolayer was confirmed by TEER (transepithelial electrical resistance) and Lucifer yellow. Payloads were spiked in duplicate at 10 NM, separately, on both sides of the cell monolayer. Permeability rates from the apical to basolateral (A-B) direction and the basolateral to apical (B-A) direction were determined by sampling aliquots from both chambers immediately after treatment (t=0) and following incubation for 2 hours. Samples were protein precipitated with organic solvent containing internal standard and analyzed by LC-MS/MS (SCIEX; API 5500). The area ratio responses of payload/internal standard over time in both directions were used to generate permeability (cm/sec) values.

[6] = system: Caco-2 cells; assay: Caco-2 permeability of ADC payload; type: in vitro ADME; details: for Perm. Mean Caco 2 A-B Perm (10e−6 cm/s) / Perm. Mean Caco 2 B-A Perm (10e−6 cm/s): corresponding free payload
Procedure: as §4

[7] = system: MOLP8 cells; assay: Cell viability CellTiter-Glo, MOLP8 (CD138-expressing); type: cell-based; details: for GI50: Homo sapiens, read-out: Payload GI50
Procedure: as §1, §3

[8] = system: N87 cells; assay: Cell viability CellTiter-Glo, N87; type: cell-based, human; details: unconjugated payload of the ADC; for GI50: Homo sapiens
Procedure: as §1, §2

[9] = system: HCC1954 cells; assay: Cell viability CellTiter-Glo, HCC1954; details: for GI50: Homo sapiens, HCC1954, read-out: Payload GI50 (nM)
[10] = Chemical stability of ADC payload, pH 5.5 buffer; type: physicochemical; details: for half-life at 20 μM: McIlvaine (citrate-phosphate) buffer, unconjugated payload, Citrate-Phosphate buffer pH 5.5, 37° C., read-out: Stability Mean Stability t1/2 pH5.5 (converted); for pH 5.5 Stability (t1/2, 37 C.): pH 5.5, 37 C., corresponding payload
Source text: (Eppendorf ThermoMixer). […] Time 0 was set to 100.

[11] = system: THP1.1; assay: Payload cell potency and lethality CTGlo 72 h, THP1.1; type: cell-based
[12] = biological target: T1, SF3b complex (Homo sapiens, UniProt O75533+Q7RTV0); assay: SF3B1 binding / scintillation proximity assay (SPA)
T1 construct: The beads were suspended and added to the prepared nuclear extracts; endogenous in cells; host or cells: nuclear extracts
Procedure: A scintillation proximity assay was performed to measure the binding affinity of compounds (“payloads”) to the SF3b complex. Batch immobilization of anti-SF3B1 antibody (MBL) to anti-mouse PVT SPA scintillation beads (PerkinElmer) was prepared as follows: for every 2.5 mg of nuclear extracts, 5 μg of anti-SF3B1 antibody and 1.5 mg of beads were mixed in 150 μL PBS. The antibody-bead mixture was incubated for 30 min at RT and centrifuged at 18,000 g for 5 min. 150 μL PBS was used to resuspend every 1.5 mg antibody-bead mixture. The beads were suspended and added to the prepared nuclear extracts. The slurry was incubated for 2 hours at 4° C. with gentle mixing. The beads were then collected by centrifuging at 18,000 g for 5 min, and washed twice with PBS+0.1% Triton X-100. After a final centrifugation step, every 1.5 mg of beads was suspended with 150 μL of PBS. […] The mixture was incubated for 30 min, and luminescence signals were read using a MicroBeta2 Plate Counter (PerkinElmer). Prism 7 (Graphpad) was used for non-linear regression curve fitting of the data.

[13] = Caco-2, A-B, corresponding payload (Table 26), read-out: Permeability Caco-2 A-B (10e−6 cm/s)
[14] = Caco-2, unconjugated payload, apical to basolateral, 2 hours, read-out: Permeability Mean Caco-2 A-B Perm (10e−6 cm/s)
[15] = Caco-2, unconjugated payload, 2 hours
[16] = MOLP-8, unconjugated payload of the ADC in the row
[17] = read-out: CTGlo-ATS GMean GI50 (nM) 72 h THP1.1, cell line #3, 72 h, corresponding free payload
[18] = unconjugated payload of the ADC
[19] = unconjugated payload, payload cell potency and lethality
[20] = unconjugated payload of the ADC, HCC1954 cells

SMILES | GI50 [1] [nM] | GI50 [3] [nM] | Payload Rmin (%) [3] [%] | Papp A→B at 2 h, 10 NM [5, 13] [×10⁻⁶ cm/s] | Papp A→B at 2 h, 10 NM [5, 14] [×10⁻⁶ cm/s] | Papp B→A at 2 h, 10 NM [5, 15] [×10⁻⁶ cm/s] | GI50 [7, 16] [nM] | GI50 [8] [nM] | Payload Rmin (%) [8] [%] | GI50 [9] [nM] | half-life at 20 μM [10] [h] | pH 5.5 Stability (t1/2, 37 C.) [10] | CTGlo-AT S Mean Min-Response % 72 h THP1.1 ([11]; unconjugated payload) [%] | GI50 [11, 19] [nM] | further results
CC[C@H](O)[C@@H](C)C1OC1C[C@@](C)(O)/C=C/C=C(\C)[C@H]1OC(=O)C[C@H](O)CC[C@@](C)(OC(C)=O)[C@@H](OC(=O)N2CCNCC2)/C=C/[C@@H]1C (stereo in doubt) [D4, (2S,3S,6S,7R,10R,E)-7-acetoxy-10-hydroxy-2-((R,2E,4E)-6-hydroxy-7-((2S,3S)-3-((2R,3S)-3-hydroxypentan-2-yl)oxiran-2-yl)-6-methylhepta-2,4-dien-2-yl)-3,7-dimethyl-12-oxooxacyclododec-4-en-6-yl piperazine-1-carboxylate] | 11.4 | 11.1 | −55.97 | 0.1 | 0.1 | 1.79 | 1.15 | 3.24 | −81.775 | 1.7 | 106 | 4.5 | −99.957 |  | CTGlo-ATS GMean LD50 (nM) 72 h NCIH1568.1 [2]: 45.485 nM; GI50 [2]: 6.37 nM; CTGlo-ATS GMean LD50 (nM) 72 h NCIH1650.1 [4]: 1960.398 nM; GI50 [4]: 11.9 nM; Perm. Mean Caco 2 A-B Perm (10e−6 cm/s) [6]: 0.1 10e−6 cm/s; Perm. Mean Caco 2 B-A Perm (10e−6 cm/s) [6]: 1.79 10e−6 cm/s; GI50 [11, 17]: 10.9 nM
CC[C@H](O)[C@@H](C)[C@H]1O[C@@H]1C[C@@](C)(O)/C=C/C=C(\C)[C@H]1OC(=O)C[C@H](O)CC[C@@](C)(OC(=O)N2CCNCC2)[C@@H](OC(C)=O)/C=C/[C@@H]1C [D8, (2S,3S,6S,7R,10R,E)-6-acetoxy-10-hydroxy-2-((R,2E,4E)-6-hydroxy-7-((2R,3R)-3-((2R,3S)-3-hydroxypentan-2-yl)oxiran-2-yl)-6-methylhepta-2,4-dien-2-yl)-3,7-dimethyl-12-oxooxacyclododec-4-en-7-yl piperazine-1-carboxylate] | 29.6 | 16.6 | −68.37 |  | 0.128 | 2.03 |  | 8.84 | −34.052 | 2.64 | 84.6 |  | −99.92 |  | CTGlo-ATS GMean LD50 (nM) 72 h NCIH1568.1 [2]: 68.125 nM; GI50 [2]: 6.57 nM; CTGlo-ATS GMean LD50 (nM) 72 h NCIH1650.1 [4]: >10000.00 nM; GI50 [4]: 19.1 nM; Perm. Mean Caco 2 A-B Perm (10e−6 cm/s) [6]: 0.128 10e−6 cm/s; Perm. Mean Caco 2 B-A Perm (10e−6 cm/s) [6]: 2.027 10e−6 cm/s; GI50 [11, 17]: 8.74 nM
CC[C@H](O)[C@@H](C)[C@H]1O[C@@H]1C[C@H](C)/C=C/C=C(\C)[C@H]1OC(=O)C[C@H](O)CC[C@@](C)(OC(C)=O)[C@@H](OC(=O)N2CCNCC2)/C=C/[C@@H]1C [D9] |  |  |  |  | 1.15 | 16.1 |  |  |  |  | < 24 |  | −99.938 |  | IC50 [12]: 2.18 nM
CC(=O)N1CCC(n2nnc3c(F)cc(/C=C(\C)[C@H]4OC(=O)C[C@H](O)CC[C@H](C)[C@@H](OC(=O)N5CCNCC5)/C=C/[C@@H]4C)cc32)CC1 [D14] | 5.29 | 3.88 | −79.835 |  | 0.06 | 12.1 |  | 2.92 | −52.662 |  | > 168 |  | −99.209 | 3.584 | GI50 ([7]; MOLP-8, unconjugated payload of the ADC): 1.9 nM; Payload LD50 [7, 18]: 8.5 nM; Payload Rmin (%) [7, 18]: −61%
CC(=O)N1CCC(n2nnc3c(F)cc(/C=C(\C)[C@H]4OC(=O)C[C@H](O)CC[C@H](C)[C@@H](OC(=O)N5CCN(C)CC5)/C=C/[C@@H]4C)cc32)CC1 [D15] | 0.961 | 3.88 | −79.835 | 3.4 | 3.43 | 26.9 | 0.776 | 0.41 | −68.045 | 0.358 | > 168 | 7 | −99.595 |  | Payload LD50 [8]: >200 nM; Payload LD50 [9, 20]: 2.037 nM; Payload Rmin (%) [9, 20]: −84.412%
C/C(=C\c1cc(F)cc(N2CCOCC2)c1)[C@H]1OC(=O)C[C@H](O)CC[C@H](C)[C@@H](OC(=O)N2CCN(C)CC2)/C=C/[C@@H]1C [D17] |  |  |  | 20 | 20.2 | 18.2 |  |  |  |  |  | 7 | −99.033 |  | IC50 ([12]; unconjugated payload, [3H]-pladienolide B probe displacement, read-out: SPA-AT S GMean IC50 (nM) SF381 (WT) HELA.2): 1.82 nM
CC[C@H](O)[C@@H](C)[C@H]1O[C@@H]1C[C@H](C)/C=C/C=C(\C)[C@H]1OC(=O)C[C@H](O)CC[C@@](C)(OC)[C@@H](OC(=O)N2CCNCC2)/C=C/[C@@H]1C [D18, (2S,3S,6S,7R,10R,E)-10-hydroxy-2-((S,2E,4E)-7-((2R,3R)-3-((2R,3S)-3-hydroxypentan-2-yl)oxiran-2-yl)-6-methylhepta-2,4-dien-2-yl)-7-methoxy-3,7-dimethyl-12-oxooxacyclododec-4-en-6-yl piperazine-1-carboxylate] | 0.883 |  |  |  | 1.19 | 27.4 |  | 0.275 | −92.127 | 0.208 |  |  | −99.621 | 0.863 | 
CC[C@H](O)[C@@H](C)[C@H]1O[C@@H]1C[C@H](C)/C=C/C=C(\C)[C@H]1OC(=O)C[C@H](O)CC[C@@](C)(OC)[C@@H](OC(=O)N2CCN(C)CC2)/C=C/[C@@H]1C [D19, (2S,3S,6S,7R,10R,E)-10-hydroxy-2-((S,2E,4E)-7-((2R,3R)-3-((2R,3S)-3-hydroxypentan-2-yl)oxiran-2-yl)-6-methylhepta-2,4-dien-2-yl)-7-methoxy-3,7-dimethyl-12-oxooxacyclododec-4-en-6-yl 4-methylpiperazine-1-carboxylate] |  | 1.41 | −29.33 | 16 |  |  | 0.84 |  |  |  |  | 0.8 |  |  | Payload LD50 [3]: >400 nM
CC[C@H](O)[C@@H](C)[C@H]1O[C@@H]1C[C@@](C)(O)/C=C/C=C(\C)[C@H]1OC(=O)C[C@H](O)CC[C@@](C)(OC)[C@@H](OC(=O)N2CCN(CCCC(=O)O)CC2)/C=C/[C@@H]1C [D25] | > 200 | > 400 | 77.524 | 0.14 | 0.137 | 0.349 | 150 | > 200 | 40.364 | 168 | 120 | 3.4 | −77.246 | 348.114 | Payload LD50 [3]: >400 nM; payload permeability (in words) [6]: poorly permeable; Payload LD50 [7, 18]: >400 nM

Source: patent US11945807B2, “Splicing modulator antibody-drug conjugates and methods of use” (EISAI R&D MANAGEMENT CO., LTD., priority 2018, dated 2024)
